Holding throughout (type): in vivo
Assay [1] deals with water seeded rice seedlings (Rice, W. S. Jap, Oryza sativa cv. ‘Japonica—M202’). Nature of the assay: Test F flooded paddy test. Set-up: key: 0 = no effect, 100 = complete control. Conditions: Flood. The source says: (§1) Plant species in the flooded paddy test consisted of one stand of 9 or 10 water seeded rice seedlings (Rice, W. S. Jap, Oryza sativa cv. ‘Japonica—M202’ or Rice, W. S. Ind, ‘Indica’), and two stands of 3 or 4 transplanted rice seedlings (Oryza sativa cv. ‘Japonica—M202’), Monochoria (Monochoria vaginalis), sedge, umbrella (small-flower umbrella sedge, Cyperus difformis), hardstem bulrush (Scirpus juncoides), redstem (purple redstem, Ammannia coccinea), rice flatsedge (Cyperus iria), bearded sprangletop (Leptochloa fascicularis), barnyardgrass (Echinochloa crus-galli), waterplantain (common waterplantain, Alisma plantago-aquatica), and late watergrass (Echinochloa oryzicola) grown to the 2 to 2.5 leaf stage for testing. Potted plants were grown in a greenhouse with day/night temperature settings of 30/27° C., and supplemental balanced lighting was provided to maintain a 16-hour photoperiod. At time of treatment, test pots were flooded to 3 cm above the soil surface, treated by application of test compounds directly to the paddy water, and then maintained at that water depth for the duration of the test. Effects of treatments on rice and weeds were visually evaluated by comparison to untreated controls after 21 d. Plant response ratings, summarized in Table F, are based on a scale of 0 to 100 where 0 is no effect and 100 is complete control. A dash (-) response means no test result.

Assay [2] has as its system transplanted rice seedlings (Oryza sativa cv. ‘Japonica—M202’). The experiment in a line: Test F flooded paddy test. Set-up: key: 0 = no effect, 100 = complete control. The settings on record: Flood.
Text: as §1

Assay [3] deals with late watergrass (Echinochloa oryzicola). The experiment in a line: Test F flooded paddy test. Conditions: Flood. Set-up: key: 0 = no effect, 100 = complete control.
Text: as §1

The subject of assay [4] is Monochoria (Monochoria vaginalis). The experiment in a line: Test F flooded paddy test. Set-up: key: 0 = no effect, 100 = complete control. The settings on record: Flood.
Text: as §1

For assay [5], the system named is bearded sprangletop (Leptochloa fascicularis). The experiment in a line: Test F flooded paddy test. Further details: key: 0 = no effect, 100 = complete control. Conditions: Flood.
Text: as §1

Assay [6] relates to barnyardgrass (Echinochloa crus-galli). The experiment in a line: Test F flooded paddy test. The settings on record: Flood. Set-up: key: 0 = no effect, 100 = complete control.
Text: as §1

In assay [7] the test system is Galium (catchweed bedstraw, Galium aparine). Nature of the assay: Test D preemergence. Conditions: scale 0 to 100. Put shortly:
(§2)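 Percent control (0–100) estimated by eye relative to untreated plants roughly 21 d after preemergence treatment of seeds in silt loam soil.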

For assay [8], the system named is pigweed (Amaranthus retroflexus). Nature of the assay: Test D preemergence. Conditions: scale 0 to 100. An outline of the steps: as §2
Assay [9] relates to canarygrass (littleseed canarygrass, Phalaris minor). The experiment in a line: Test D preemergence. Conditions: scale 0 to 100. Put shortly: as §2
The test system of assay [10] is oat, wild (wild oat, Avena fatua). The experiment in a line: Test D preemergence. The settings on record: scale 0 to 100. Put shortly: as §2

Take `CN1C[C@H](c2ccc(F)c(F)c2)[C@@H](C(=O)Nc2ccccc2F)C1=O` [Compound 596, (3S,4S)-4-(3,4-difluorophenyl)-N-(2-fluorophenyl)-1-methyl-2-oxo-3-pyrrolidinecarboxamide]: the “Plant response rating: Rice, Water Seeded” value was 0 in assay [1] (16 g ai/ha), 0 in assay [1] (32 g ai/ha) and 15 in assay [1] (250 g ai/ha). Further, the “Plant response rating: Rice, Water Seed.” value in assay [1] (64 g ai/ha) and in [1] (125 g ai/ha) was 10 in each case. Moreover, the “Plant response rating: Rice, Transplanted” value in [2] (16 g ai/ha), in [2] (32 g ai/ha), in [2] (64 g ai/ha), in [2] (125 g ai/ha) and in assay [2] (250 g ai/ha) was 0 each time. Also, the “Plant response rating: Watergrass, Late” value in [3] (16 g ai/ha) is on record as 15; in assay [3] (32 g ai/ha), 40; in assay [3] (64 g ai/ha), 85; in assay [3] (125 g ai/ha), 100; in [3] (250 g ai/ha), 100. Moreover, the “Plant response rating: Monochoria” value in [4] (16 g ai/ha) is reported as 25; in [4] (32 g ai/ha), 45; in assay [4] (64 g ai/ha), 100; in assay [4] (125 g ai/ha) it was 100; in [4] (250 g ai/ha), 100. Further, the “Plant response rating: Sprangletop, Brdd.” value amounted to 0 in [5] (16 g ai/ha); 40 in [5] (32 g ai/ha); 85 in assay [5] (64 g ai/ha); 85 in assay [5] (125 g ai/ha); 95 in assay [5] (250 g ai/ha). In addition, the “Plant response rating: Barnyardgrass” value in assay [6] (16 g ai/ha) turned out to be 45; in assay [6] (32 g ai/ha) it was 65; in assay [6] (64 g ai/ha), 100; in assay [6] (125 g ai/ha) it was 100; in assay [6] (250 g ai/ha), 100.
With `CN1C[C@H](c2ccc(C(F)(F)F)cc2)[C@@H](C(=O)Nc2cccc(F)c2F)C1=O` [Compound 623, (3S,4S)—N-(2,3-difluorophenyl)-1-methyl-2-oxo-4-[4-(trifluoromethyl)phenyl]-3-pyrrolidinecarboxamide], the “Plant response rating: Galium” value in assay [7] (31 g ai/ha) was 0; in assay [7] (62 g ai/ha), 5; in assay [7] (125 g ai/ha) it was 15; in assay [7] (250 g ai/ha) it was 80. The “Plant response rating: Pigweed” value is listed as 75 in assay [8] (31 g ai/ha), 95 in assay [8] (62 g ai/ha), 95 in assay [8] (125 g ai/ha) and 100 in assay [8] (250 g ai/ha). Besides, the “Plant response rating: Canarygrass” value in [9] (31 g ai/ha) is 25; in [9] (62 g ai/ha) it was 70; in assay [9] (125 g ai/ha), 85; in assay [9] (250 g ai/ha) it was 85. Further, the “Plant response rating: Oat, Wild” value in assay [10] (31 g ai/ha) amounted to 25; in [10] (62 g ai/ha), 30; in assay [10] (125 g ai/ha) it was 55; in assay [10] (250 g ai/ha) it was 60.

(Values after patent publication US12077503B2, “Substituted cyclic amides and their use as herbicides” (FMC CORPORATION, priority 2015, dated 2024).)
